From patent US12213978B2, “Madrasin-derivative compounds, composition and uses thereof for treating cancer” (INSTITUT GUSTAVE ROUSSY, priority 2018, dated 2025)

Tests used:
[1] = system: MCA205 sarcoma cells expressing the intron-derived SL8 antigen; experiment: T-cell assay: B3Z specific T-cell activation by MCA205 cells expressing the intron-derived SL8 antigen; format: cell-based, mouse; details: for PTP-SL8 presentation (B3Z T-cell activation): O/N
Experimental: (§1) MCA205 mouse sarcoma cell line is cultured at 37° C. under 5% CO2 in RPMI 1640 medium (Life Technologies) in the presence of 1% glutamine, 1% sodium pyruvate, 1% non-essential amino-acids, 1% penicillin/streptomycin and 10% FBS (Life Technologies). B16F10 mouse melanoma cell line is cultured at 37° C. under 5% CO2 in DMEM medium (Life Technologies) containing 1% glutamine, 1% penicillin/streptomycin and 10% FCS under standard conditions. Stable MCA205-Globin-SL8-intron cell line are cultured under the same condition as MCA205 cell line with additional 500 μg/ml G418 (Life Technologies) for selection. Stable B16F10-Globin-SL8-intron cell line are cultured under the same condition as B16F10 cell line with additional 500 μg/ml G418 (Life Technologies) for selection. The SL8/Kb-specific (B3Z) T-cell reporter hybridoma are cultured at 37° C. under 5% CO2 in RPMI 1640 medium (Life Technologies) in the presence of 1% L-glutamine, 1% penicillin/streptomycin, 50 μM β-mercaptoéthanol and 10% FCS.
(§2) MCA205 and B16F10 mouse cell lines are transfected with the plasmid YFP-Globin-SL8-intron or with the PCDNA3 empty plasmid (negative control) with the transfection reagent jetPRIME (Ozyme) or GeneJuice (Millipore) respectively according to each manufacturer protocol. Twenty-four hours after transfection, cells are treated with different doses of Madrasin (Sigma SML 1409), Madra.HCl (3·HCl) or the different compounds herein cited. Cells are then washed three times with PBS 1× and 5.10^4 tumor cells are co-cultured with 1.10^5 B3Z hybridoma in a 96-well plate. In positive control wells, 4 μg/ml of synthetic peptide SL8 is added. Cells are then incubated overnight at 37° C. with 5% CO2. The plate is centrifuged at 1200 rpm for 5 min, cells are washed twice with PBS 1× and lysed for 5 min at 4° C. under shaking in 0.2% TritonX-100, 0.2% DTT, 0.5M K2HPO4, 0.5M KH2PO4. The lysate is centrifuged at 3000 rpm for 10 min and the supernatant is transferred to a 96-well optiplate (OptiPlaque-96, PerkinElmer). A revelation buffer containing 10 mM MgCl2, 11.2 mM β-mercaptoethanol, 0.0015% IGEPAL® CA-630 and 40 μM 4-Methylumbelliferyl β-D-Galactopyranoside (MUG) in PBS is added and the plate is incubated at room temperature for 3 hours. Finally, the β-galactosidase activity is measured using the FLUOstar OPTIMA (BMG LABTECH Gmbh, 30 Offenburg, Germany). Results are expressed as mean±SEM. *P<0.05, **P<0.01, ***P<0.001 (unpaired student t test).

[2] = system: B16F10 melanoma cells expressing the intron-derived SL8 antigen; experiment: T-cell assay: B3Z specific T-cell activation by B16F10 cells expressing the intron-derived SL8 antigen; format: cell-based, mouse; details: for PTP-SL8 presentation (B3Z T-cell activation): O/N
Experimental: as §1, §2

Solubility in water = format: physicochemical

## Cc1nc(Nc2nc(C)c3ccc(OCCN4CCOCC4)cc3n2)[nH]c(=O)c1C [EYP201, 5,6-Dimethyl-2-((4-methyl-7-(2-morpholinoethoxy)quinazolin-2-yl)amino)pyrimidin-4(3H)-one]
[1]; MCA205, 20 μM
  PTP-SL8 presentation (B3Z T-cell activation): increase
[2]; B16F10, 20 μM
  PTP-SL8 presentation (B3Z T-cell activation): increase

## COc1ccc2c(C)nc(Nc3ccc(OC)nc3)nc2c1 [EYP174, 7-Methoxy-N-(6-methoxypyridin-3-yl)-4-methylquinazolin-2-amine]
[2]; B16F10, 20 μM
  PTP-SL8 presentation (B3Z T-cell activation): increase

## COc1ccc2c(C)nc(Nc3ccnc(OC)n3)nc2c1 [EYP190, 7-Methoxy-N-(2-methoxypyrimidin-4-yl)-4-methylquinazolin-2-amine]
[2]; B16F10, 60 μM
  PTP-SL8 presentation (B3Z T-cell activation): increase

## COc1ccc2c(C)nc(Nc3nc(C)c(C)c(=O)[nH]3)nc2c1S[C@H]1O[C@@H](CO)[C@H](O)[C@@H](O)[C@@H]1O [EYP113, 2-((7-Methoxy-4-methyl-8-(((2R,3S,4R,5R,6S)-3,4,5-trihydroxy-6-(hydroxymethyl)tetrahydro-2H-pyran-2-yl)thio)quinazolin-2-yl)amino)-5,6-dimethylpyrimidin-4(3H)-one]
[1]; MCA205, 10 μM
  PTP-SL8 presentation (B3Z T-cell activation): not see any increase
[2]; B16F10, 10 μM
  PTP-SL8 presentation (B3Z T-cell activation): not see any increase

## COc1ccc2c(C)nc(Nc3cc(OC)c(OC)c(OC)c3)nc2c1 [EYP188, 7-Methoxy-4-methyl-N-(3,4,5-trimethoxyphenyl)quinazolin-2-amine]
[1]; MCA205, 60 μM
  PTP-SL8 presentation (B3Z T-cell activation): increase

## COc1ccc2c(C)nc(Nc3ccc(C)cc3)nc2c1 [EYP156, 7-Methoxy-4-methyl-N-(p-tolyl)quinazolin-2-amine]
[1]; MCA205, 60 μM
  PTP-SL8 presentation (B3Z T-cell activation): not see any increase
[2]; B16F10, 60 μM
  PTP-SL8 presentation (B3Z T-cell activation): not see any increase

## COc1ccc2c(C)nc(Nc3cn(C(=O)OC(C)(C)C)c4ccccc34)nc2c1 [EYP177, t-Butyl 3-((7-methoxy-4-methylquinazolin-2-yl)amino)-1H-indole-1-carboxylate]
[1]; MCA205, 60 μM
  PTP-SL8 presentation (B3Z T-cell activation): not see any increase
[2]; B16F10, 60 μM
  PTP-SL8 presentation (B3Z T-cell activation): not see any increase

## COc1ccc2c(C)nc(Nc3nc(C)c(C)c(=O)[nH]3)nc2c1SC1OC(COC(C)=O)C(OC(C)=O)C(OC(C)=O)C1OC(C)=O [EYP86, ((1S,2S,4R,5S,6S)-5-Acetoxy-7,8-diacetyl-4-((2-((4,5-dimethyl-6-oxo-1,6-dihydropyrimidin-2-yl)amino)-7-methoxy-4-methylquinazolin-8-yl)thio)-3,7λ^3,8λ^3-trioxabicyclo[4.2.0]octan-2-yl)methyl Acetate]
[1]; MCA205, 50 μM
  PTP-SL8 presentation (B3Z T-cell activation): increase

## COc1ccc2c(C)nc(Nc3nc(C)c(C)c(=O)[nH]3)nc2c1SCC(NC(C)=O)C(=O)O (stereo not drawn) [EYP102, N-Acetyl-S-(2-((4,5-dimethyl-6-oxo-1,6-dihydropyrimidin-2-yl)amino)-7-methoxy-4-methylquinazolin-8-yl)cysteine]
[1]; MCA205, 20 μM
  PTP-SL8 presentation (B3Z T-cell activation): not see any increase
[2]; B16F10, 20 μM
  PTP-SL8 presentation (B3Z T-cell activation): not see any increase

## COc1ccc2c(C)nc(Nc3nc(C)c(C)c(=O)[nH]3)nc2c1 [Madrasin, 2-((7-Methoxy-4-methylquinazolin-2-yl)amino)-5,6-dimethylpyrimidin-4(3H)-one]
[1]; MCA205, 5 μM or 10 μM, dose dependent
  PTPs-dependent antigen presentation (B3Z T-cell activation): increase
[2]; B16F10, 5 μM or 10 μM, dose dependent
  PTPs-dependent antigen presentation (B3Z T-cell activation): increase
Solubility in water
  solubility in water: insoluble in water

## COc1ccc2c(C)nc(Nc3nccc(OC)n3)nc2c1 [EYP179, 7-Methoxy-N-(4-methoxypyrimidin-2-yl)-4-methylquinazolin-2-amine]
[2]; B16F10, 20 μM
  PTP-SL8 presentation (B3Z T-cell activation): increase

## COc1ccc2c(C)nc(Nc3c[nH]c4ccccc34)nc2c1 [EYP165, N-(1H-Indol-3-yl)-7-methoxy-4-methylquinazolin-2-amine]
[1]; MCA205, 60 μM
  PTP-SL8 presentation (B3Z T-cell activation): increase
[2]; B16F10, 60 μM
  PTP-SL8 presentation (B3Z T-cell activation): increase

## CNc1ccnc(Nc2nc(C)c3ccc(OC)cc3n2)n1 [EYP181, N^2-(7-Methoxy-4-methylquinazolin-2-yl)-N^4-methylpyrimidine-2,4-diamine]
[2]; B16F10, 10 μM
  PTP-SL8 presentation (B3Z T-cell activation): increase

## COc1ncc(Nc2ncc3ccccc3n2)cn1 [EYP281, N-(2-Methoxypyrimidin-5-yl)quinazolin-2-amine]
[1]; MCA205, 50 μM
  PTP-SL8 presentation (B3Z T-cell activation): increase
[2]; B16F10, 50 μM
  PTP-SL8 presentation (B3Z T-cell activation): increase
